In the NIST ThermoML archive (doi:10.1021/je060271a):
Values joined by “and” are separate entries in the source; they are usually repeats but may differ in a detail not shown here. Identical values can stand only once. ± gives the expanded uncertainty stated by the source.

Conditions: Liquid, Vibrating tube method

CCCCCCC(=O)OCC(COC(=O)CCCCCC)(COC(=O)CCCCCC)COC(=O)CCCCCC [pentaerythritol tetraheptanoate]
Conditions	mass density
343.15 K, 32525 kPa	962.8 ± 1.2 kg/m3
343.15 K, 32544 kPa	962.9 ± 1.2 kg/m3
343.15 K, 32576 kPa	962.8 ± 1.2 kg/m3
343.15 K, 32608 kPa	962.8 ± 1.2 kg/m3
343.15 K, 32640 kPa	962.9 ± 1.2 kg/m3
343.15 K, 32679 kPa	962.8 ± 1.6 kg/m3
343.15 K, 32711 kPa	963 ± 1.2 kg/m3
343.15 K, 32736 kPa	963 ± 1.2 kg/m3
343.15 K, 32750 kPa	963.1 ± 1.2 kg/m3
343.15 K, 32774 kPa	963.1 ± 1.2 kg/m3
343.15 K, 32782 kPa	963 ± 1.2 kg/m3
343.15 K, 32814 kPa	963.1 ± 1.2 kg/m3
343.15 K, 32815 kPa	963 ± 1.2 kg/m3
343.15 K, 32853 kPa	963.1 ± 1.2 kg/m3
343.15 K, 32854 kPa	962.9 ± 1.2 kg/m3
343.15 K, 32887 kPa	962.9 ± 1.2 kg/m3
343.15 K, 32900 kPa	963.1 ± 1.2 kg/m3
343.15 K, 32920 kPa	963.1 ± 1.2 kg/m3
343.15 K, 32940 kPa	963 ± 1.2 kg/m3
343.15 K, 32953 kPa	963.1 ± 1.2 kg/m3
343.15 K, 32980 kPa	963 ± 1.2 kg/m3
343.15 K, 32993 kPa	963.1 ± 1.2 kg/m3
343.15 K, 33027 kPa	963.1 ± 1.2 kg/m3
343.15 K, 33028 kPa	963.2 ± 1.2 kg/m3
343.15 K, 33060 kPa	963.1 ± 1.2 kg/m3
343.15 K, 33068 kPa	963.1 ± 1.2 kg/m3
343.15 K, 33100 kPa	963.1 ± 1.2 kg/m3
343.15 K, 33109 kPa	963.1 ± 1.2 kg/m3
343.15 K, 33134 kPa	963.3 ± 1.2 kg/m3
343.15 K, 33174 kPa	963.3 ± 1.2 kg/m3
343.15 K, 33208 kPa	963.4 ± 1.2 kg/m3
343.15 K, 33242 kPa	963.2 ± 1.2 kg/m3
343.15 K, 33276 kPa	963.3 ± 1.2 kg/m3
343.15 K, 33317 kPa	963.3 ± 1.2 kg/m3
343.15 K, 33351 kPa	963.3 ± 1.2 kg/m3
343.15 K, 33385 kPa	963.4 ± 1.2 kg/m3
343.15 K, 33425 kPa	963.3 ± 1.2 kg/m3
343.15 K, 33459 kPa	963.4 ± 1.2 kg/m3
343.15 K, 33500 kPa	963.3 ± 1.2 kg/m3
343.15 K, 33535 kPa	963.4 ± 1.2 kg/m3
343.15 K, 33569 kPa	963.4 ± 1.2 kg/m3
343.15 K, 33604 kPa	963.4 ± 1.2 kg/m3
343.15 K, 33645 kPa	963.5 ± 1.2 kg/m3
343.15 K, 33679 kPa	963.4 ± 1.2 kg/m3
343.15 K, 33714 kPa	963.4 ± 1.2 kg/m3
343.15 K, 33721 kPa	963.6 ± 1.2 kg/m3
343.15 K, 33756 kPa	963.6 ± 1.2 kg/m3
343.15 K, 33772 kPa	963.8 ± 1.2 kg/m3
343.15 K, 33791 kPa	963.6 ± 1.2 kg/m3
343.15 K, 33816 kPa	963.7 ± 1.2 kg/m3
343.15 K, 33833 kPa	963.5 ± 1.2 kg/m3
343.15 K, 33862 kPa	963.6 ± 1.2 kg/m3
343.15 K, 33869 kPa	963.6 ± 1.2 kg/m3
343.15 K, 33906 kPa	963.5 ± 1.2 kg/m3
343.15 K, 33942 kPa	963.6 ± 1.2 kg/m3
343.15 K, 33949 kPa	963.7 ± 1.2 kg/m3
343.15 K, 33986 kPa	963.7 ± 1.2 kg/m3
343.15 K, 34002 kPa	963.7 ± 1.2 kg/m3
343.15 K, 34024 kPa	963.7 ± 1.2 kg/m3
343.15 K, 34048 kPa	963.7 ± 1.2 kg/m3
343.15 K, 34062 kPa	963.7 ± 1.2 kg/m3
343.15 K, 34095 kPa	963.8 ± 1.2 kg/m3
343.15 K, 34108 kPa	963.8 ± 1.2 kg/m3
343.15 K, 34139 kPa	963.8 ± 1.2 kg/m3
343.15 K, 34152 kPa	963.8 ± 1.2 kg/m3
343.15 K, 34166 kPa	963.8 ± 1.2 kg/m3
343.15 K, 34187 kPa	963.8 ± 1.2 kg/m3
343.15 K, 34202 kPa	963.9 ± 1.2 kg/m3
343.15 K, 34208 kPa	964 ± 1.2 kg/m3
343.15 K, 34229 kPa	963.8 ± 1.2 kg/m3
343.15 K, 34254 kPa	963.7 ± 1.2 kg/m3
343.15 K, 34259 kPa	963.9 ± 1.2 kg/m3
343.15 K, 34276 kPa	963.7 ± 1.2 kg/m3
343.15 K, 34290 kPa	964 ± 1.2 kg/m3
343.15 K, 34314 kPa	964 ± 1.2 kg/m3
343.15 K, 34315 kPa	963.9 ± 1.2 kg/m3
343.15 K, 34342 kPa	964 ± 1.2 kg/m3
343.15 K, 34365 kPa	963.9 ± 1.2 kg/m3 and 964.1 ± 1.2 kg/m3
343.15 K, 34390 kPa	964 ± 1.2 kg/m3
343.15 K, 34409 kPa	963.8 ± 1.2 kg/m3
343.15 K, 34414 kPa	964.1 ± 1.2 kg/m3
343.15 K, 34444 kPa	964 ± 1.2 kg/m3
343.15 K, 34469 kPa	963.9 ± 1.2 kg/m3
343.15 K, 34483 kPa	964 ± 1.2 kg/m3
343.15 K, 34500 kPa	964 ± 1.2 kg/m3
343.15 K, 34527 kPa	964.1 ± 1.2 kg/m3
343.15 K, 34534 kPa	964.1 ± 1.2 kg/m3
343.15 K, 34556 kPa	964 ± 1.2 kg/m3
343.15 K, 34566 kPa	964.1 ± 1.2 kg/m3
343.15 K, 34584 kPa	964.1 ± 1.2 kg/m3
343.15 K, 34616 kPa	964.2 ± 1.2 kg/m3
343.15 K, 34624 kPa	964.2 ± 1.2 kg/m3
343.15 K, 34625 kPa	964.2 ± 1.2 kg/m3
343.15 K, 34651 kPa	964.1 ± 1.2 kg/m3
343.15 K, 34654 kPa	964.2 ± 1.2 kg/m3
343.15 K, 34656 kPa	964.2 ± 1.2 kg/m3
343.15 K, 34659 kPa	964.1 ± 1.2 kg/m3
343.16 K, 100.2 kPa	940.6 ± 1.1 kg/m3
343.16 K, 100.5 kPa	940.7 ± 1.1 kg/m3 and 940.6 ± 1.1 kg/m3
343.16 K, 100.7 kPa	940.6 ± 1.1 kg/m3 and 940.7 ± 1.1 kg/m3
343.16 K, 101 kPa	940.7 ± 1.1 kg/m3
343.16 K, 101.7 kPa	940.6 ± 1.1 kg/m3
343.16 K, 103.8 kPa	940.6 ± 1.1 kg/m3
343.16 K, 104.7 kPa	940.6 ± 1.1 kg/m3
343.16 K, 160.8 kPa	940.8 ± 1.1 kg/m3
343.16 K, 221.5 kPa	940.6 ± 1.1 kg/m3
343.16 K, 300.9 kPa	940.7 ± 1.1 kg/m3
343.16 K, 1395.6 kPa	941.7 ± 1.1 kg/m3
343.16 K, 1419.9 kPa	941.7 ± 1.1 kg/m3
343.16 K, 4555 kPa	944.1 ± 1.2 kg/m3
343.16 K, 5039.3 kPa	944.4 ± 1.2 kg/m3
343.16 K, 13687 kPa	950.5 ± 1.2 kg/m3
